# Laboratory results from patent publication US20230047208A1, “RNA Splicing Modulation” (The General Hospital Corporation, priority 2020, published 2023).
# Tested on: wildtype (WT) human fibroblast cell lines
# Assay: Transcriptome-wide splicing by RNA sequencing (RNASeq), exon triplet PSI change
# Format: cell-based
# Parameters: key to Effect: Exclusion; Inclusion; Unchanged
# Source text: FIG. 2A provides a representation of an exon triplet. Exon U is upstream of Exon X, which is upstream of Exon D. R1, R2 and R3 represent RNA sequencing (RNASeq) reads spanning the regions between two adjacent exons. UI1, I1X, XI2 and I2D are four regions flanking the four splice sites of the exon-triplet. Each flanking region consists of 25 exonic base pairs and 75 intronic base pairs.
# FIG. 2B provides a volcano plot showing the ψ (PSI: Percent Spliced-In) changes in splicing after treatment with Compound (I). Each dot represents one of the 161,097 expressed exon triplets in human fibroblasts. The x axis represents the ψ changes after treatment and the y axis represents the False Discovery Rate (FDR) (log 10 transformed). […] The horizontal dashed line indicates an FDR of 0.1. The dots on the right side of the right vertical dashed line and above the horizontal dashed line represent the exon-triplets with an increase for Exon X inclusion (Δψ≥0.1 and FDR<0.1) while the dots on left side of the left vertical dashed line and above the horizontal dashed line represent an increase for Exon X exclusion (Δψ≤−0.1 and FDR<0.1). Black dots in-between the two vertical dashed lines represent exon-triplets unchanged from the treatment.
# In some aspects, analysis is performed on data derived from the assay to measure the magnitude of splicing to determine the amount of exons spliced into an mRNA transcript that is produced in the presence of Compound (I) relative to the amount in the absence of Compound (I) or presence of a negative control. In a preferred aspect, the method utilized is calculation of change in Percent Spliced In (ΔPSI). […] The ΔPSI value is derived from the formula: […]
# The values for “a” and “b” represent the number of reads supporting the probability for potential inclusion or exclusion of an exon in an RNA transcript. The “a” value is derived from the number of reads within an exon triplet covering, in 5′ to 3′ order: the last few bases (>1 nucleotide) of an upstream exon operably linked to the first few bases (>1 nucleotide) of a middle exon. The “b” value is derived from the number of reads within an exon triplet covering, in 5′ to 3′ order: the last few bases (>1 nucleotide) of the middle exon operably linked to the first few bases (>1 nucleotide) of a downstream exon. The number of reads will indicate whether the splice junction of a middle exon has been identified as potentially having a CNN Motif(s) by the CNN Model described herein, wherein the inclusion or exclusion of the middle exon may be modulated in the presence of Compound (I) to produce one or more mature RNA isoforms from the gene transcript. The value for “c” represents the number of reads supporting the exclusion of the middle exon.
# The effect on splicing modulation and corresponding splice differences toward exon inclusion or exclusion was determined by counting the RNASeq reads covering two splice junctions of exon triplets (three consecutive exons: Exon U, Exon X, Exon D) and the corresponding intervening introns, then comparing the change in Percent Spliced In (ΔPSI or Δψ) of the middle exon (Exon X) after treatment (as shown in FIG. 2A)^52,53. 934 exon triplets were identified showing differential middle exon inclusion or exclusion in response to Compound (I) treatment. Of these, 254 were exon inclusion events (Δψ≥0.1 and FDR<0.1) and 680 were exon exclusion events (Δψ≤−0.1 and FDR<0.1) (as shown in FIG. 2B). […] The splicing results were evaluated by RT-PCR in independent replicate experiments, confirming all the calculated Δψ values. […]
compound,measurement,setting,value
"Clc1nc(NCc2ccncc2)c2cc[nH]c2n1 [Compound (I), 2-chloro-N-(pyridin-4-ylmethyl)-7H-pyrrolo[2,3-d]pyrimidin-4-amine]","splicing changes, share of all expressed triplets","934 out of 161,097 expressed triplets",0.58%
same,Effect,"Exc/Inc/Unc of the middle exon of the exon triplet, six WT human fibroblast cell lines treated for seven days vs DMSO, gene LENG8",Exc
same,Effect,"Exc/Inc/Unc of the middle exon of the exon triplet, six WT human fibroblast cell lines treated for seven days vs DMSO, gene LGALS8",Inc
same,Effect,"Exc/Inc/Unc of the middle exon of the exon triplet, six WT human fibroblast cell lines treated for seven days vs DMSO, gene LRP12",Unc
same,Effect,MYO1B Exon 192265475-192265561,Inc
same,T-PSI,MYO1B Exon 192265475-192265561,0.296
same,ΔPSI,MYO1B Exon 192265475-192265561,0.128
same,Effect,MYO1B Exon 192267358-192267444,Inc
same,T-PSI,MYO1B Exon 192267358-192267444,0.483
same,ΔPSI,MYO1B Exon 192267358-192267444,0.190
same,Effect,MYO5A Exon 52630007-52630081,Exc
same,T-PSI,MYO5A Exon 52630007-52630081,0.063
same,ΔPSI,MYO5A Exon 52630007-52630081,−0.118
same,Effect,MYO5A Exon 52635314-52635394,Unc
same,T-PSI,MYO5A Exon 52635314-52635394,0.617
same,ΔPSI,MYO5A Exon 52635314-52635394,0.007
same,Effect,MYO5A Exon 52641015-52641023,Inc
same,T-PSI,MYO5A Exon 52641015-52641023,0.953
same,ΔPSI,MYO5A Exon 52641015-52641023,0.130
same,Effect,MYO18A Exon 27464034-27464102,Unc
same,T-PSI,MYO18A Exon 27464034-27464102,0.330
same,ΔPSI,MYO18A Exon 27464034-27464102,0.005
same,Effect,MYO19 Exon 34870956-34871025,Exc
same,T-PSI,MYO19 Exon 34870956-34871025,0.870
same,ΔPSI,MYO19 Exon 34870956-34871025,−0.109
same,Effect,N6AMT2 Exon 21311862-21311944,Unc
same,T-PSI,N6AMT2 Exon 21311862-21311944,0.755
same,ΔPSI,N6AMT2 Exon 21311862-21311944,0.010
same,Effect,NABP1 Exon 192547218-192547321,Inc
same,T-PSI,NABP1 Exon 192547218-192547321,0.729
same,ΔPSI,NABP1 Exon 192547218-192547321,0.198
same,Effect,NADK2 Exon 36208727-36208792,Exc
same,T-PSI,NADK2 Exon 36208727-36208792,0.005
same,ΔPSI,NADK2 Exon 36208727-36208792,−0.102
same,Effect,NAE1 Exon 66860571-66860683,Exc
same,T-PSI,NAE1 Exon 66860571-66860683,0.596
same,ΔPSI,NAE1 Exon 66860571-66860683,−0.315
same,Effect,NAE1 Exon 66860580-66860683,Exc
same,T-PSI,NAE1 Exon 66860580-66860683,0.859
same,ΔPSI,NAE1 Exon 66860580-66860683,−0.115
same,Effect,NBN Exon 90994181-90994230,Exc
same,T-PSI,NBN Exon 90994181-90994230,0.017
same,ΔPSI,NBN Exon 90994181-90994230,−0.156
same,Effect,NCK2 Exon 106497784-106498505,Unc
same,T-PSI,NCK2 Exon 106497784-106498505,0.586
same,ΔPSI,NCK2 Exon 106497784-106498505,−0.008
same,Effect,NCOR2 Exon 124811955-124812179,Unc
same,T-PSI,NCOR2 Exon 124811955-124812179,0.657
same,ΔPSI,NCOR2 Exon 124811955-124812179,0.000
same,Effect,NCOR2 Exon 124812093-124812179,Unc
same,T-PSI,NCOR2 Exon 124812093-124812179,0.681
same,ΔPSI,NCOR2 Exon 124812093-124812179,−0.001
same,Effect,NEDD1 Exon 97301382-97301634,Unc
same,T-PSI,NEDD1 Exon 97301382-97301634,0.826
same,ΔPSI,NEDD1 Exon 97301382-97301634,−0.003
same,Effect,NEDD1 Exon 97301480-97301634,Unc
same,T-PSI,NEDD1 Exon 97301480-97301634,0.878
same,ΔPSI,NEDD1 Exon 97301480-97301634,0.008
same,Effect,NEK1 Exon 170508710-170508764,Exc
same,T-PSI,NEK1 Exon 170508710-170508764,0.830
same,ΔPSI,NEK1 Exon 170508710-170508764,−0.152
same,Effect,NEO1 Exon 73567033-73567065,Inc
same,T-PSI,NEO1 Exon 73567033-73567065,0.149
same,ΔPSI,NEO1 Exon 73567033-73567065,0.120
same,Effect,NEXN Exon 78390873-78390914,Exc
same,T-PSI,NEXN Exon 78390873-78390914,0.654
same,ΔPSI,NEXN Exon 78390873-78390914,−0.138
same,Effect,NF2 Exon 30079009-30079053,Inc
same,T-PSI,NF2 Exon 30079009-30079053,0.900
same,ΔPSI,NF2 Exon 30079009-30079053,0.167
same,Effect,NF2 Exon 30079009-30079068,Inc
same,T-PSI,NF2 Exon 30079009-30079068,0.807
same,ΔPSI,NF2 Exon 30079009-30079068,0.244
same,Effect,NFE2L1 Exon 46134394-46134483,Exc
same,T-PSI,NFE2L1 Exon 46134394-46134483,0.327
same,ΔPSI,NFE2L1 Exon 46134394-46134483,−0.156
